Assay results from patent US20110236506A1, “PHARMACEUTICAL ASSOCIATION CONTAINING LIPOIC ACID AND HYDROXYCITRIC ACID AS ACTIVE INGREDIENTS” (priority 2008, published 2011).

Assays:
[1] = system: MBT-2 murine bladder tumors; test: Antitumor activity tests on C3H mice with implanted MBT-2 tumors; assay type: in vivo
Protocol: The compositions described hereinafter were tested against MBT-2 murine bladder tumors implanted in syngeneic C3H mice. These mice develop a tumor of 7 to 10 mm in diameter in approximately 20 days. The pharmaceutical combinations according to the invention and also the control compositions were administered intraperitoneally, for 21 days, starting from the 19th day after tumor inoculation. The change in tumor development was monitored by measuring the size of the tumors and monitoring the survival of the animals during the experiment.
The mice were randomized in groups of 18 individuals, the tumor of which is palpable (size of approximately 10 mm, after approximately 19 days of tumor development), according to the size of the tumor and the weight of the animals. For each animal, the maximum diameter of each tumor was measured with a Vernier caliper in order to determine the tumor volume. […]
The treatment with 5-FU (positive control) was administered intraperitoneally with a dose of 10 mg/kg once a day for 4 days. The mice treated with 5-FU were monitored in the same way as the other mice.
Every five days, the evolution of the tumor was monitored by various measurements: weight of the animals, tumor size (caliper rule), mortality. […]

[2] = system: T-24 tumor cell line; test: Cell proliferation and viability test (MTT / number of cells), T-24 cell line; assay type: cell-based, human; conditions: molecule tested alone, relative to control culture
Protocol: The T-24 tumor cell line is a transitional bladder carcinoma isolated from a person (O'Toole C M. et al. 1983 Nature 301: 429-30).
(§1) The tumor cell lines were cultured in monolayer at 37° C. in a humidified atmosphere (5% CO2, 95% air). The culture medium which was used is DMEM Glutamax I (Invitrogen) for the two lines, supplemented with 10% of fetal calf serum (Eurobio) and 1/10 000 IU of penicillin and streptomycin. For carrying out the experiments, the human tumor cell lines were detached from the culture flask by treatment for 10 minutes with a solution of trypsin in Hanks medium without calcium or magnesium. The cells were counted in a hemocytometer and their viability was determined using the trypan blue exclusion test.
(§2) The tumor cell lines were amplified and then seeded into 96-well microplates (MTT) or 6-well plates (cell counts) at a concentration which allowed the cells to be in the proliferation phase for the 5 days of the culture. They were incubated for 48 hours before the beginning of the treatments in the microplates containing culture medium without the test substances or the reference substances.
(§3) During phase I (test with a single active ingredient), the tumor cell lines were incubated for 5 days at 37° C. under 5% CO2 with culture medium containing one of the test substances. Each experimental condition was reproduced six times. Generally, the flasks of culture medium supplemented with serum were first of all prepared with the highest concentration of each test molecule. Each other concentration to be tested was obtained by successive dilutions in the serum-supplemented culture medium. This step was adjusted according to the particular instability or sensitivity of each drug.
In phase II of the study (test with the combination of the two active ingredients), the same conditions for preparing the media and for culturing the cells were adhered to, and the active ingredients were combined and added simultaneously to the culture medium.
(§4) The tumor cell lines were incubated with 100 μl (96-well plates) or 2 ml (6-well plates) of serum-supplemented culture medium containing the test substances or the reference substance. The culture medium of each culture well (supplemented with the test molecule(s)) was renewed every two days during the treatment.
(§5) Starting from the first day of contact, and every two days after the beginning of the contacting of the culture media containing the test substances and the reference substances at the various concentrations tested, the proliferation and the cell viability of the cells were evaluated. The cell viability was evaluated in two different ways: • directly, under an optical microscope by statistical counting (number of cells), and • indirectly, by colorimetric assay based on the degradation of tetrazolium salts by mitochondrial dehydrogenases (MIT test). The optical densities (OD) of each well were then read with a microplate reader set at the appropriate wavelength.
(§6) For each active ingredient, each concentration tested and each combination, three cell viability values were measured and corrected, in particular by means of the calibration ranges for the optical reading instrument.
(§7) The mean of the three cell viability measurement values was then divided by the mean of the measurements of viability carried out in parallel in a control culture free of active ingredients.

[3] = system: HT-29 tumor cell line; test: Cell proliferation and viability test (MTT / number of cells), HT-29 cell line; assay type: cell-based, human; conditions: molecule tested alone, relative to control culture
Protocol: The HT-29 tumor cell line was isolated in 1964 from a primary colonic adenocarcinoma in a person (Fogh J. et al. 1977 J. Nat. Cancer. Inst. 59: 221-6).
as §1, §2
as §3, with “drug. […]” for “drug.”
as §4, §5, §6, §7

[4] = system: HT-29 and T-24 cell lines; test: Cell viability tests, observations stated jointly for the two cell lines; assay type: cell-based; conditions: human, 5 days, 4 μmol.l−1
Protocol: as §1, with “test. […]” for “test.”
as §5

Compound: O=c1[nH]cc(F)c(=O)[nH]1 [5-FU, 5-fluorouracil]
- days of implantation after which 50% of the mice are still alive ([1]; FIG. 4B, groups of 18 mice): 39 days
- increase in survival compared with the control mice ([1]; controls: 50% alive after 27 days): 12 days

Compound: O=C(O)CCCCC1CCSS1 (stereo not drawn) [Lipoic acid, alpha-lipoic acid]
- Ratio of live T-24 cells after 72 hours, MTT ([2]; 0.1 μmol·l−1): 0.898
- Ratio of live T-24 cells after 72 hours, Number of cells ([2]; 0.1 μmol·l−1): 0.940
- Ratio of live T-24 cells after 72 hours, MTT ([2]; 1 μmol·l−1): 0.690
- Ratio of live T-24 cells after 72 hours, Number of cells ([2]; 1 μmol·l−1): 0.772
- Ratio of live T-24 cells after 72 hours, MTT ([2]; 10 μmol·l−1): 0.534
- Ratio of live T-24 cells after 72 hours, Number of cells ([2]; 10 μmol·l−1): 0.601
- Ratio of live HT-29 cells after 72 hours, MTT ([3]; 0.1 μmol·l−1): 0.807
- Ratio of live HT-29 cells after 72 hours, Number of cells ([3]; 0.1 μmol·l−1): 0.853
- Ratio of live HT-29 cells after 72 hours, MTT ([3]; 1 μmol·l−1): 0.55
- Ratio of live HT-29 cells after 72 hours, Number of cells ([3]; 1 μmol·l−1): 0.583
- Ratio of live HT-29 cells after 72 hours, MTT ([3]; 10 μmol·l−1): 0.452
- Ratio of live HT-29 cells after 72 hours, Number of cells ([3]; 10 μmol·l−1): 0.441
- cell mortality [4]: ≤ 50%

Compound: calcium hydroxycitrate
- Ratio of live T-24 cells after 72 hours, MTT ([2]; 0.2 μmol·l−1): 0.725
- Ratio of live T-24 cells after 72 hours, Number of cells ([2]; 0.2 μmol·l−1): 0.845
- Ratio of live T-24 cells after 72 hours, MTT ([2]; 3 μmol·l−1): 0.488
- Ratio of live T-24 cells after 72 hours, Number of cells ([2]; 3 μmol·l−1): 0.643
- Ratio of live T-24 cells after 72 hours, MTT ([2]; 45 μmol·l−1): 0.359
- Ratio of live T-24 cells after 72 hours, Number of cells ([2]; 45 μmol·l−1): 0.450
- Ratio of live HT-29 cells after 72 hours, MTT ([3]; 10 μmol·l−1): 0.743
- Ratio of live HT-29 cells after 72 hours, Number of cells ([3]; 10 μmol·l−1): 0.777
- Ratio of live HT-29 cells after 72 hours, MTT ([3]; 100 μmol·l−1): 0.519
- Ratio of live HT-29 cells after 72 hours, Number of cells ([3]; 100 μmol·l−1): 0.557
- Ratio of live HT-29 cells after 72 hours, MTT ([3]; 500 μmol·l−1): 0.376
- Ratio of live HT-29 cells after 72 hours, Number of cells ([3]; 500 μmol·l−1): 0.374
